According to US20170112896A1, “SMALL MOLECULE RAC OR RHO INHIBITORS” (Ohio State Innovation Foundation, priority 2014, published 2017):
Values joined by “and” are separate entries in the source; they are usually repeats but may differ in a detail not shown here. Identical values can stand only once. Square brackets hold non-standard residues; d marks the D form. Peptide text beside a SMILES is read from it. * marks the point of attachment. Lys(5-FITC)NH2 = NC(=O)[C@H](CCCCNC(=S)Nc1ccc2c(c1)C(=O)OC21c2ccc(O)cc2Oc2cc(O)ccc21)N*; FITC = O=C1OC2(c3ccc(O)cc3Oc3cc(O)ccc32)c2ccc(NC(=S)*)cc21; Phe(3,4-F2) = N[C@@H](Cc1ccc(F)c(F)c1)C(=O)O; Phe(4-F) = N[C@@H](Cc1ccc(F)cc1)C(=O)O; d2Nal = N[C@H](Cc1ccc2ccccc2c1)C(=O)O; NMeL = CN[C@@H](CC(C)C)C(=O)O; dNle = CCCC[C@@H](N)C(=O)O; Abu = CC[C@H](N)C(=O)O

Key:
[1] = molecular target: T1, K-Ras(G12V) (Homo sapiens, UniProt P01116, G12V); test: Fluorescence anisotropy (FA) binding of FITC-labeled cyclic peptides to K-Ras; settings: Table 1, resynthesized FITC-labeled library hits, read-out: KD (μM), affinity for K-Ras
T1 construct: The G12V mutant K-Ras (amino acids 1-185) was recombinantly fused to glutathione 5-transferase (GST) at its N-terminus; GST (N, cleaved yes); made in house; host or cells: Escherichia coli BL21
T1 sequence (P01116 1-185 isoform P01116-2 G12V): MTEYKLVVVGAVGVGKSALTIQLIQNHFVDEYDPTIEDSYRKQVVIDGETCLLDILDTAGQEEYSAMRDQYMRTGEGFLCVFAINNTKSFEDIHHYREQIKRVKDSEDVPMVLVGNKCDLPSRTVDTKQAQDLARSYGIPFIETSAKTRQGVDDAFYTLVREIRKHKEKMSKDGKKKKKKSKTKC
Protocol: The cells were grown at 37° C. in Luria broth supplemented with 0.05 mg/mL kanamycin to an OD600 of 0.6 when protein expression was induced by addition of IPTG for a final concentration of 1 mM. After 5 h of incubation at 30° C., the cells were harvested by centrifugation. The cell pellets were lysed by sonication in a lysis buffer (40 mM Tris-HCl, 150 mM NaCl, 0.5% Triton X-100, 5 mM (3-mercaptoethanol, pH 8.0) containing a protease inhibitor cocktail tablets (Sigma). The crude cell lysate was loaded onto a glutathione-Sepharose 4B column (GE Healthcare) and the bound GST-K-Ras was eluted with an elution buffer (50 mM Tris, pH 8.0, 10 mM glutathione). After buffer exchange into PBS, the protein was quickly frozen and stored at −80° C. To generate K-Ras without the GST tag, the GST-K-Ras protein (2 mg in PBS) was treated with 20 units of thrombin (GE Healthcare) for 16 h at 4° C. The reaction mixture was passed through a glutathione-Sepharose 4B column to remove the released GST and the resulting K-Ras protein was stored at −80° C.
(§2) For cyclic peptides derived from single library beads (library screening), K-Ras protein (non-GST fusion, 0-20 μM) was incubated with the TMR-labeled peptide (50 or 100 nM) in 20 μL, of the blocking buffer for 2.5 h at 24° C. The FA values were measured on a Molecular Devices Spectramax M5 spectrofluorimeter, with excitation and emission wavelengths at 545 and 585 nm, respectively. Equilibrium dissociation constants (KD) were determined by plotting the FA values as a function of K-Ras concentration and fitting the data to the equation
(§3) where Y is the measured anisotropy at a given K-Ras concentration x; L is the peptide concentration; Qb/Qf is the correction fact for dye-protein interaction; Amax is the maximum anisotropy at saturating K-Ras concentration; and Amin is the minimum anisotropy. FA analyses with resynthesized FITC-labeled peptides were similarly carried oμL, except that the excitation and emission wavelengths were at 494 and 520 nm, respectively.

[2] = molecular target: T2, Ras(G12V)-Raf RBD interaction (Homo sapiens, UniProt P01116, G12V); test: HTRF assay, inhibition of Ras-Raf RBD interaction; assay type: binding; settings: for increase of Ras binding affinity by substitution: relative to parent 9A5/9A6
T2 construct: The G12V mutant K-Ras (amino acids 1-185) was recombinantly fused to glutathione 5-transferase (GST) at its N-terminus; GST (N, cleaved yes); made in house; host or cells: Escherichia coli BL21
T2 sequence (P01116 1-185 isoform P01116-2 G12V): as above
Protocol: Recombinant HA-tagged K-Ras (no GST, 50 nM), GST-Raf RBD (50 nM each), a monoclonal anti-HA antibody labeled with acceptor d2 (2 μg/mL), a monoclonal anti-GST antibody labeled with donor Tb (0.25 μg/mL) (Cisbio), and increasing concentrations of cyclic peptide (0-20 μM) were mixed in PBS (total volume of 20 μL) in a 384-well plate. The plate was incubated overnight at 4° C. and the HTRF signal was measured on a Molecular Devices Spectramax M5 or a Tecan infinite M1000 Pro plate reader. The data were analyzed by Prism 6.0 from Graphpad Software, Inc. (La Jolla, Calif.) and IC50 values were obtained by fitting the data to dose-response-inhibition curve.

[3] = system: A549 lung cancer cells
[4] = system: H1299 lung cancer cells; assay type: cell-based; settings: for IC50: 72 h; for anti-proliferative activity against lung cancer cells (in words): MTT assay
Protocol: MTT assays (Mosmann, T. (1983) J. Immunol. Methods 65:55) were performed with H1299 lung cancer cells. One hundred μL of H1299 cells (0.5×10^5 cells/mL) were seeded in each well of a 96-well culture plate and allowed to grow overnight in Advanced RPMI medium supplemented with 10% fetal bovine serum (FBS) and 1% penicillin-streptomycin. Varying concentrations of cyclic peptide (0-25 μM) were added to the each well and the cells were incubated at 37° C. with 5% CO2 for 72 hours. Ten μL of a MTT stock solution (Roche) was added into each well. The plate was incubated at 37° C. for 4 h. Then 100 μL of SDS-HCl solubilizing buffer was added into each well, and the resulting solution was mixed thoroughly. The plate was incubated at 37° C. overnight. The absorbance of the formazan product was measured at 570 nm using a Molecular Devices Spectramax M5 plate reader. Each experiment was performed in triplicates and the cells without any peptide added were treated as control.

[5] = molecular target: T3, RhoA (Homo sapiens, UniProt P61586); test: FA binding of FITC-9A5 to recombinant RhoA
T3 construct: purchased Origene (Rockville, Md.)
T3 sequence (P61586 whole entry): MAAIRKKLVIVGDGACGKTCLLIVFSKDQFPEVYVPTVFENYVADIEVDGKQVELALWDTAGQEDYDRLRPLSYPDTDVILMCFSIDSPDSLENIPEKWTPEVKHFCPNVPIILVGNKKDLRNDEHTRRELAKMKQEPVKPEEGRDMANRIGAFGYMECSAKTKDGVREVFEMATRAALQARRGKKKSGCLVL
Source text: (§1) Reagents for peptide synthesis were purchased from Peptides International (Louisville, Ky.), NovaBiochem (La Jolla, Calif.), Anaspec (San Jose, Calif.), Chem-Impex International Inc. (Wood Dale, Ill.), or Aapptec (Lousiville, Ky.). N-Hydroxysuccinimidyl biotin was purchased from Chem-Impex International (Wood Dale, Ill.) and N-(9-fluorenylmethoxycarbonyloxy)succinimide (Fmoc-OSu) from Advanced ChemTech. Phenyl isothiocyanate (PITC), isopropyl13-D-1-thiogalactopyranoside (IPTG), protease inhibitor cocktail tablets, ampicillin and kanamycin were purchased from Sigma-Aldrich. Cell proliferation kit (MTT) was purchased from Roche (Indianapolis, Ind.). Cell culture media, fetal bovine serum, penicillin-streptomycin, 0.25% trypsin-EDTA, DPBS (2.67 mM potassium chloride, 1.47 mM potassium phosphate monobasic, 137 mM sodium chloride, 8.06 mM sodium phosphate dibasic), streptavidin-coated Dynabeads M-280, Texas red N-hydroxysuccinimide ester, and tetramethylrhodamine (TMR) azide were purchased from Invitrogen (Carlsbad, Calif.). Anti-GST-Tb and Anti-HA d2 antibodies were purchased from Cisbio (Bedford, Mass.). Recombinant K-Ras WT, H-Ras WT, Rac1, RhoA and CDC42 were purchased from Origene (Rockville, Md.). Solvents and other chemical reagents were purchased from Sigma-Aldrich or VWR (West Chester, Pa.).

[6] = molecular target: Ras-GDP (Homo sapiens, UniProt P01116, G12V); test: biochemical
Sequence of Ras-GDP (P01116 1-185 isoform P01116-2 G12V): as the sequence (P01116 1-185 isoform P01116-2 G12V) above
Protocol: (§4) To prepare Ras-GTP, purified K-Ras was incubated with 20 mM EDTA plus 2 mM GTP in PBS overnight at 4° C. After addition of 40 mM of MgCl2, the protein was dialyzed against PBS.
as §2
(§5) FA analyses with resynthesized FITC-labeled peptides were similarly carried oμL, except that the excitation and emission wavelengths were at 494 and 520 nm, respectively.

[7] = molecular target: Ras-GTP (Homo sapiens, UniProt P01116, G12V); test: biochemical
Sequence of Ras-GTP (P01116 1-185 isoform P01116-2 G12V): as above
Protocol: as §4, §2, §5

[8] = molecular target: T4, H-Ras(WT) (Homo sapiens, UniProt P01112); test: FA binding of FITC-9A5 to H-Ras; settings: FITC-labeled peptide
T4 construct: purchased Origene (Rockville, Md.)
T4 sequence (P01112 whole entry): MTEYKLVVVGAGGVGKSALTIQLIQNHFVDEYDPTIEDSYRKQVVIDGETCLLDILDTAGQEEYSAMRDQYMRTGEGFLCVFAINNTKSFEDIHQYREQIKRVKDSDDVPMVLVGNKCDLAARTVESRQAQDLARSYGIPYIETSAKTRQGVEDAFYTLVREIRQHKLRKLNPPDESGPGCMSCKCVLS
Source text: as §1

[9] = molecular target: T5, bovine serum albumin (Bos taurus, UniProt P02769); test: FA binding of FITC-9A5 to control protein BSA
T5 construct: from tissue; host or cells: bovine serum (from the name only)
T5 sequence (P02769 25-607): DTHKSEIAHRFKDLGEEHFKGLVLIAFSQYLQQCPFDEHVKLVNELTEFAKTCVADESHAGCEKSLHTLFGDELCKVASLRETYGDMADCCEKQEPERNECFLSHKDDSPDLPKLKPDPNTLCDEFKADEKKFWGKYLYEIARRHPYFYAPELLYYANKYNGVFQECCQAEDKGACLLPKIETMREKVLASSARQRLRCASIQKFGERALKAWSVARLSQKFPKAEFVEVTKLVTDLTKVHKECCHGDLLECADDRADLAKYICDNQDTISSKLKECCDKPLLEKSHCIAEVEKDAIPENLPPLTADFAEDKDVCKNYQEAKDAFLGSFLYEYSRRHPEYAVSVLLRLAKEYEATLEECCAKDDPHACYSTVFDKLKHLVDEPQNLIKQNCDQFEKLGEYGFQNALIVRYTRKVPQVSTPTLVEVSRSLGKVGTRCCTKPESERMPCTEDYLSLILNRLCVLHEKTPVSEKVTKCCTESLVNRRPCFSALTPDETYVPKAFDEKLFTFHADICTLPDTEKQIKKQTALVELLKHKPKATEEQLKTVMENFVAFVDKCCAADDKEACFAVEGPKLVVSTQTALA
Protocol: The FA values were measured on a Molecular Devices Spectramax M5 spectrofluorimeter, with excitation and emission wavelengths at 545 and 585 nm, respectively. Equilibrium dissociation constants (KD) were determined by plotting the FA values as a function of K-Ras concentration and fitting the data to the equation
as §3

[10] = molecular target: T6, Rac1 (Homo sapiens, UniProt P63000); test: FA binding of FITC-9A5 to recombinant Rac1
T6 construct: purchased Origene (Rockville, Md.)
Source text: as §1

[11] = molecular target: Ras-GPPNP (Homo sapiens, UniProt P01116, G12V); test: biochemical
Sequence of Ras-GPPNP (P01116 1-185 isoform P01116-2 G12V): as the sequence (P01116 1-185 isoform P01116-2 G12V) above
Protocol: as §4, §2, §5

## CC(C)C[C@H]1C(=O)N[C@@H](CCC(=O)N[C@@H](CCCCNC(=S)Nc2ccc3c(c2)C(=O)OC32c3ccc(O)cc3Oc3cc(O)ccc32)C(N)=O)C(=O)N[C@@H](CCCNC(=N)N)C(=O)N[C@@H](CCCNC(=N)N)C(=O)N[C@H](Cc2ccc3ccccc3c2)C(=O)N[C@@H](CCCNC(=N)N)C(=O)N[C@@H](Cc2ccc(F)cc2)C(=O)N[C@H](CC(N)=O)C(=O)N[C@H](Cc2ccc3ccccc3c2)C(=O)N1C [Cyclorasin 3A] (cyclo(E(Lys(5-FITC)NH2)RR[d2Nal]R[Phe(4-F)][dN][d2Nal][NMeL]))
[1]
  Kd: 0.91 ± 0.23 µM

## CC(C)[C@H]1NC(=O)[C@H](Cc2ccc(O)cc2)NC(=O)[C@H](CCCNC(=N)N)NC(=O)[C@H](Cc2ccc(F)cc2)NC(=O)[C@H](CCCNC(=N)N)NC(=O)[C@@H](Cc2ccc3ccccc3c2)NC(=O)[C@H](CCCNC(=N)N)NC(=O)[C@H](CCCNC(=N)N)NC(=O)[C@H](CCC(=O)N[C@@H](CCCCNC(=S)Nc2ccc3c(c2)C(=O)OC32c3ccc(O)cc3Oc3cc(O)ccc32)C(N)=O)NC(=O)[C@H](Cc2ccc(F)cc2)NC1=O [Cyclorasin 7A] (cyclo(E(Lys(5-FITC)NH2)RR[d2Nal]R[Phe(4-F)]RY[dV][Phe(4-F)]))
[1]
  Kd: 0.88 ± 0.27 µM

## CCCC[C@H]1NC(=O)[C@H](Cc2ccc(F)cc2)NC(=O)[C@H](CCCNC(=N)N)NC(=O)[C@@H](Cc2ccc3ccccc3c2)NC(=O)[C@H](CCCNC(=N)N)NC(=O)[C@H](CCCNC(=N)N)NC(=O)[C@@H](CCCNC(=N)N)NC(=O)[C@@H](C)NC(=O)[C@H]([C@@H](C)O)NC(=O)[C@H](Cc2c[nH]c3ccccc23)NC(=O)[C@H](CCC(N)=O)NC1=O [Cyclorasin 9A6] (cyclo(WT[dA][dR]RR[d2Nal]R[Phe(4-F)][dNle]Q))
[2]; relative to 9A1
  higher potency than 9A1 against K-Ras: 3 fold
[3]
  cell permeability / intracellular fluorescence: improved cell permeability

## CCCC[C@H]1NC(=O)[C@H](Cc2ccc(F)c(F)c2)NC(=O)[C@H](CCCNC(=N)N)NC(=O)[C@@H](Cc2ccc3ccccc3c2)NC(=O)[C@H](CCCNC(=N)N)NC(=O)[C@H](CCCNC(=N)N)NC(=O)[C@H](CCCNC(=N)N)NC(=O)[C@@H](C)NC(=O)[C@H]([C@@H](C)O)NC(=O)[C@H](Cc2c[nH]c3ccccc23)NC(=O)[C@H](CCC(N)=O)NC1=O [Cyclorasin 9A43] (cyclo(WT[dA]RRR[d2Nal]R[Phe(3,4-F2)][dNle]Q))
[2]
  increase of Ras binding affinity by substitution: 2 fold
[4]
  IC50: 6.9 ± 0.8 µM

## C[C@H]1NC(=O)[C@H]([C@@H](C)O)NC(=O)[C@H](Cc2c[nH]c3ccccc23)NC(=O)[C@H](CCC(N)=O)NC(=O)[C@@H](CCCNC(=N)N)NC(=O)[C@H](Cc2ccc(F)cc2)NC(=O)[C@H](CCCNC(=N)N)NC(=O)[C@@H](Cc2ccc3ccccc3c2)NC(=O)[C@H](CCCNC(=N)N)NC(=O)[C@H](CCCNC(=N)N)NC(=O)[C@H](CCCNC(=N)N)NC1=O [Cyclorasin 9A45] (cyclo(WT[dA]RRR[d2Nal]R[Phe(4-F)][dR]Q))
[2]
  increase of Ras binding affinity by substitution: 4 fold
[4]
  IC50: 8.9 ± 2.1 µM

## CCCC[C@H]1NC(=O)[C@H](Cc2ccc(F)cc2)NC(=O)[C@H](CCCNC(=N)N)NC(=O)[C@@H](Cc2ccc3ccccc3c2)NC(=O)[C@H](CCCNC(=N)N)NC(=O)[C@H](CCCNC(=N)N)NC(=O)[C@H](CCC(=O)N[C@@H](CCCCNC(=S)Nc2ccc3c(c2)C(=O)OC32c3ccc(O)cc3Oc3cc(O)ccc32)C(N)=O)NC(=O)[C@@H](C)NC(=O)[C@H]([C@@H](C)O)NC(=O)[C@H](Cc2c[nH]c3ccccc23)NC(=O)[C@@H](CO)NC1=O [Cyclorasin 9A, (Arg-Arg-nal-Arg-Fpa-nle-ser-Trp-Thr-ala-Gln)] (cyclo(RR[d2Nal]R[Phe(4-F)][dNle][dS]WT[dA]E(Lys(5-FITC)NH2)))
[4]
  IC50: 18 ± 4 µM
  anti-proliferative activity against lung cancer cells (in words): weak anti-proliferative activity
[3]
  cell permeability / intracellular fluorescence: cell permeable

## C[C@H]1NC(=O)[C@H](CCCNC(=N)N)NC(=O)[C@H](Cc2c[nH]c3ccccc23)NC(=O)[C@H](CCCNC(=N)N)NC(=O)[C@H](Cc2ccc(F)cc2)NC(=O)[C@H](CCCNC(=N)N)NC(=O)[C@@H](Cc2ccc3ccccc3c2)NC(=O)[C@H](CCCNC(=N)N)NC(=O)[C@H](CCCNC(=N)N)NC(=O)[C@H](CCC(N)=O)NC1=O [Cyclorasin 12A, (Arg-Arg-nal-Arg-Fpa-Arg-Trp-Arg-ala-Gln)] (cyclo(RR[d2Nal]R[Phe(4-F)]RWR[dA]Q))
[4]
  anti-proliferative activity against lung cancer cells (in words): weak anti-proliferative activity
[3]
  cell permeability / intracellular fluorescence: cell permeable

## CC[C@@H]1NC(=O)[C@@H](Cc2ccccc2)NC(=O)[C@H](Cc2ccc(F)cc2)NC(=O)[C@@H](CC(N)=O)NC(=O)[C@H](Cc2ccc(F)cc2)NC(=O)[C@H](CCCNC(=N)N)NC(=O)[C@@H](Cc2ccc3ccccc3c2)NC(=O)[C@H](CCCNC(=N)N)NC(=O)[C@H](CCCNC(=N)N)NC(=O)[C@H](CCC(=O)N[C@@H](CCCCNC(=S)Nc2ccc3c(c2)C(=O)OC32c3ccc(O)cc3Oc3cc(O)ccc32)C(N)=O)NC1=O [Cyclorasin 13A] (cyclo([Abu]E(Lys(5-FITC)NH2)RR[d2Nal]R[Phe(4-F)][dN][Phe(4-F)][dF]))
[1]
  Kd: 1 ± 0.2 µM

## CCCC[C@H]1NC(=O)[C@H](Cc2ccc(F)cc2)NC(=O)[C@H](CCCNC(=N)N)NC(=O)[C@@H](Cc2ccc3ccccc3c2)NC(=O)[C@H](CCCCNC(=S)Nc2ccc3c(c2)C(=O)OC32c3ccc(O)cc3Oc3cc(O)ccc32)NC(=O)[C@H](CCCNC(=N)N)NC(=O)[C@H](CCCNC(=N)N)NC(=O)[C@@H](C)NC(=O)[C@H]([C@@H](C)O)NC(=O)[C@H](Cc2c[nH]c3ccccc23)NC(=O)[C@H](CCC(N)=O)NC1=O [FITC-9A5] (cyclo(K(FITC)[d2Nal]R[Phe(4-F)][dNle]QWT[dA]RR))
[5]
  Kd: 0.18 µM
[6]
  Kd: 2.5 µM
[7]
  Kd: 0.44 µM
[8]
  Kd: 0.5 µM
[9]
  Kd: 30 µM and 31 µM
[3]
  cell permeability / intracellular fluorescence: intense, defuse fluorescence throughout the cytoplasm
[10]
  Kd: 0.25 µM
[11]
  Kd: 0.64 µM
